Consider 28 compounds from US8822449B2, “Substituted aminoindanes and analogs thereof, and the pharmaceutical use thereof” (Sanofi, priority 2008, dated 2014).

Where two headings read alike, the source gives them in different places.

In the test the target is T1, sodium-proton exchanger of subtype 3 (NHE3) (Homo sapiens, UniProt P48764).
T1 construct: expressed in transfected cells
T1 sequence (P48764 26-834): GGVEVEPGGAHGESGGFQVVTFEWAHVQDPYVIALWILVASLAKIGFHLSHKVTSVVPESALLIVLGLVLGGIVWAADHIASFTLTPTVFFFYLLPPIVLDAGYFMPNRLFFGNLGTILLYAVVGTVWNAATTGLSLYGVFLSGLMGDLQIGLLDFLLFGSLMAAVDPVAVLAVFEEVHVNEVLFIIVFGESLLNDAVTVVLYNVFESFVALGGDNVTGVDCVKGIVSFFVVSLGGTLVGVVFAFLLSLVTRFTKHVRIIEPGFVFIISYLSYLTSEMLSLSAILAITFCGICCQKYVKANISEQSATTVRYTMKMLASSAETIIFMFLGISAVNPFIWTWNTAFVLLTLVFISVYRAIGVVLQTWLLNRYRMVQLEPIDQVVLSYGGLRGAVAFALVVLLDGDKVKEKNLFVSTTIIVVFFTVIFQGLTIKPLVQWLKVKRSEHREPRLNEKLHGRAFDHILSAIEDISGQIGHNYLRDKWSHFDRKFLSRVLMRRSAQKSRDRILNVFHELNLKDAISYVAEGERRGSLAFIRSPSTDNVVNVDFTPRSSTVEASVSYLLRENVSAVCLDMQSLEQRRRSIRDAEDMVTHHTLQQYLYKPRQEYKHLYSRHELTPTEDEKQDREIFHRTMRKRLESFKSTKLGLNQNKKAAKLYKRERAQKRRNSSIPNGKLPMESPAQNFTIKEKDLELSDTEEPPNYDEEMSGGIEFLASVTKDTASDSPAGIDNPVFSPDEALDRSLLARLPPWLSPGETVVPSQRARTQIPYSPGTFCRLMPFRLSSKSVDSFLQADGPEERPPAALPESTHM
The experiment in a line: Recovery of intracellular pH (pHi) after acidification in LAP1 cells stably expressing NHE3 (BCECF fluorescence, FLIPR). The following applies: LAP1 cells stably expressing NHE3, pH recovery after acidification, range 1 is % inhibition at 10 μM. It is filed as cell-based.

Where [1] appears, read: read-out: Activity range (inhibitory effect on NHE3).

For the compound `NCC1CCN([C@@H]2Cc3ccccc3[C@H]2Oc2cccc(NC(N)=O)c2)C1` (mixture of isomers) [Example 233, {3-[rac-trans-(1,2)-2-(3-aminomethylpyrrolidin-1-yl)indan-1-yloxy]phenyl}urea], the IC50 under setting [1] lay in the range of 1000 to 10000 nM. Regarding `CC(=O)Nc1cccc(OC2c3ccccc3CC2N2CC[C@@H](N3CCCC3)C2)c1` (mixture of isomers) [Example 670, N-[rac-trans-(1,2)-3-((R)-2-[1,3′]bipyrrolidinyl-1′-ylindan-], the inhibition at 10 µM under setting [1] was 20 to 50%. As to `CS(=O)(=O)c1ccc(O[C@H]2c3c(Cl)cc(Cl)cc3C[C@@H]2N2CCNCC2)cc1` (racemic) [Example 287, 1-[rac-trans-(1,2)-5,7-dichloro-1-(4-methanesulfonylphenoxy)indan-2-yl]piperazine], under setting [1], the IC50 was below 1000 nM.

Turning to `Fc1ccc(O[C@H]2c3ccccc3CC[C@@H]2N2CCOCC2)c2ncccc12` (racemic) [Example 586, 5-fluoro-8-(rac-trans-(1,2)-2-morpholin-4-yl-1,2,3,4-tetrahydronaphthalen-1-yloxy)quinoline], under setting [1], the inhibition at 10 µM lay in the range of 20 to 50%. As to `CC1(C)NC(=O)N(c2ccc(Cl)c(O[C@H]3c4cc(Cl)cc(F)c4C[C@@H]3N3CC[C@@H](O)C3)c2)C1=O` [Example 436, 3-{4-chloro-3-[(1S,2S)-6-chloro-4-fluoro-2-((R)-3-hydroxypyrrolidin-1-yl)indan-1-yloxy]phenyl}-5,5-dimethylimidazolidine-2,4-dione], the IC50 under setting [1] fell in the range of 1000 to 10000 nM. For `Cc1nc2cc(O[C@@H]3c4ccccc4C[C@H]3N3CCC(CN)C3)ccc2s1` (mixture of isomers) [Example 608, C-{1-[rac-trans-(1,2)-1-(2-methylbenzothiazol-5-yloxy)indan-2-yl]pyrrolidin-3-yl}methylamine], under setting [1], the IC50 lay within 1000 to 10000 nM. As for `N[C@@H]1CCCN([C@H]2CCc3ccccc3[C@@H]2Oc2ccc(Cl)cc2)C1` (racemic) [Example 66, (R)-1-[rac-trans-(1,2)-1-(4-chlorophenoxy)-1,2,3,4-tetrahydronaphthalen-2-yl]piperidin-3-ylamine], the inhibition at 10 µM under setting [1] fell in the range of 20 to 50%. As to `Cc1nn(C)c(C)c1-c1ccc(O[C@H]2c3cc(Cl)cc(Cl)c3C[C@@H]2N2CC[C@@H](O)C2)cc1` [Example 124, (R)-1-{trans-(1S,2S)-4,6-dichloro-1-[4-(1,3,5-trimethyl-1H-pyrazol-4-yl)phenoxy]indan-2-yl}pyrrolidin-3-ol], the IC50 under setting [1] was 1000 to 10000 nM. The same measure, in the same setting: to `Cc1nnc(C)n1-c1ccc(O[C@H]2c3cc(Cl)cc(Cl)c3C[C@@H]2N2CC[C@@H](C#N)C2)cc1` [Example 134, (R)-1-{trans-(1S,2S)-4,6-dichloro-1-[4-(3,5-dimethyl-[1,2,4]triazol-4-yl)phenoxy]indan-2-yl}pyrrolidine-3-carbonitrile] belongs below 1000 nM.

With `N#Cc1ccc(O[C@H]2c3ccccc3C[C@@H]2N2CCCC2)cc1` (racemic) [Example 468, 4-(rac-trans-(1,2)-2-pyrrolidin-1-ylindan-1-yloxy)benzonitrile], the IC50 under setting [1] lay in the range of 1000 to 10000 nM. Still for that read-out and setting: the figure for `Cc1nnc(C(C)C)n1-c1ccc(O[C@H]2c3cc(Cl)cc(Cl)c3C[C@@H]2N2CC[C@@H](O)C2)cc1` [Example 715, (R)-1-{trans-(1S,2S)-4,6-Dichloro-1-[4-(3-isopropyl-5-methyl-[1,2,4]triazol-4-yl)-phenoxy]-indan-2-yl}-pyrrolidin-3-ol] is below 1000 nM; for `N#Cc1ccc(O[C@@H]2c3ccccc3C[C@H]2N2CCC(N)C2)c(Cl)c1` (mixture of isomers) [Example 543, 4-[rac-trans-(1,2)-2-(3-aminopyrrolidin-1-yl)indan-1-yloxy]-3-chlorobenzonitrile] it is 1000 to 10000 nM. For `Cc1nnc(C)n1-c1ccc(O[C@H]2c3ccccc3C(C)(C)[C@@H]2N2CCCC2)cc1` (racemic) [Example 497, 4-[4-(rac-trans-(1,2)-3,3-dimethyl-2-pyrrolidin-1-ylindan-1-yloxy)phenyl]-3,5-dimethyl-4H-[1,2,4]triazole], under setting [1], the inhibition at 10 µM was 20 to 50%. With `Cn1ccn(-c2ccc(Cl)c(O[C@H]3c4cc(Cl)cc(Cl)c4C[C@@H]3N3CC[C@@H](O)C3)c2)c1=O` [Example 335, 1-{4-chloro-3-[(1S,2S)-4,6-dichloro-2-((R)-3-hydroxypyrrolidin-1-yl)indan-1-yloxy]phenyl}-3-methyl-1,3-dihydroimidazol-2-one], under setting [1], the IC50 was below 1000 nM. The same measure, in the same setting: to `Cc1nnc(C)n1-c1ccc(O[C@H]2c3cc(Cl)cc(Cl)c3C[C@@H]2N2CC[C@@H](F)C2)cc1` [Example 561, 4-{4-[trans-(1S,2S)-4,6-dichloro-2-((R)-3-fluoropyrrolidin-1-yl)indan-1-yloxy]phenyl}-3,5-dimethyl-4H-[1,2,4]triazole] belongs below 1000 nM.

On to `NS(=O)(=O)c1ccc(O[C@@H]2c3ccccc3C[C@H]2NC2CC2)c(F)c1` (racemic) [Example 703, 4-(rac-trans-(1,2)-2-Cyclopropylamino-indan-1-yloxy)-3-fluoro-benzenesulfonamide], for which the IC50 under setting [1] lay within 1000 to 10000 nM. As to `CS(=O)(=O)c1ccc(O[C@H]2c3ccccc3C[C@@H]2NC2CCCC2)cc1` (racemic) [Example 623, Cyclopentyl-[1-(4-methanesulfonylphenoxy)indan-2-yl]amine], under setting [1], the IC50 was 1000 to 10000 nM.

Regarding `CCN(CC)C(=O)c1ccc(O[C@H]2c3ccccc3C[C@@H]2N2CCCC2)cc1` (racemic) [Example 633, N,N-diethyl-4-(rac-trans-(1,2)-2-pyrrolidin-1-ylindan-1-yloxy)benzamide], the IC50 (Activity range (inhibitory effect on NHE3)) fell in the range of 1000 to 10000 nM. For the compound `Cc1nnc(C)n1-c1ccc(O[C@H]2c3cc(Cl)cc(F)c3C[C@@H]2N2CC[C@@H](O)C2)cc1` [Example 144, (R)-1-{trans-(1S,2S)-6-chloro-1-[4-(3,5-dimethyl-[1,2,4]triazol-4-yl)phenoxy]-4-fluoroindan-2-yl}pyrrolidin-3-ol], under setting [1], the IC50 was below 1000 nM. In the case of `N#Cc1ccc2cccc(O[C@H]3c4ccccc4CC[C@@H]3N3CCC[C@H](N)C3)c2n1` (racemic) [Example 596, 8-[rac-trans-(1,2)-2-((S)-3-aminopiperidin-1-yl)-1,2,3,4-tetrahydronaphthalen-1-yloxy]quinoline-2-carbonitrile], under setting [1], the IC50 was in the range of 1000 to 10000 nM. On to `Cc1nnc(C(C)C)n1-c1ccc(O[C@H]2c3cc(Cl)cc(F)c3C[C@@H]2N2CC[C@@H](O)C2)cc1` [Example 721, (R)-1-{trans-(1S,2S)-6-Chloro-4-fluoro-1-[4-(3-isopropyl-5-methyl-[1,2,4]triazol-4-yl)-phenoxy]-indan-2-yl}-pyrrolidin-3-ol], for which the IC50 under setting [1] was in the range of 1000 to 10000 nM. Still for that read-out and setting: the figure for `CS(=O)(=O)c1ccc(O[C@H]2c3ccccc3C[C@@H]2N2CCCC2)c(Cl)c1Cl` (racemic) [Example 263, 1-[rac-trans-(1,2)-1-(2,3-dichloro-4-methanesulfonylphenoxy)indan-2-yl]pyrrolidine] is below 1000 nM. Same read-out and setting: to `COC[C@@H]1CCCN1[C@H]1Cc2c(Cl)cc(Cl)cc2[C@@H]1Oc1ccc(-n2c(C)nnc2C)cc1` [Example 562, 4-{4-[trans-(1S,2S)-4,6-dichloro-2-((S)-2-methoxymethylpyrrolidin-1-yl)indan-1-yloxy]phenyl}-3,5-dimethyl-4H-[1,2,4]triazole] belongs 1000 to 10000 nM; to `Cc1nnc(C)n1-c1ccc(O[C@H]2c3cc(Cl)cc(Cl)c3C[C@@H]2N2CCCNCC2)c(Cl)c1` [Example 344, 1-{trans-(1S,2S)-4,6-dichloro-1-[2-chloro-4-(3,5-dimethyl-[1,2,4]triazol-4-yl)phenoxy]indan-2-yl}-[1,4]diazepane], below 1000 nM; to `CC(=O)Nc1cccc(O[C@H]2c3ccccc3C[C@@H]2N2CCC[C@@H](N)C2)c1` [Example 691, N-{3-[trans-(1S,2S)-2-((R)-3-aminopiperidin-1-yl)indan-1-yloxy]phenyl}acetamide], below 1000 nM. As to `N[C@@H]1CCCN([C@H]2CCc3ccccc3[C@@H]2Oc2ccc(F)c(C(F)(F)F)c2)C1` (racemic) [Example 69, (R)-1-[rac-trans-(1,2)-1-(4-fluoro-3-trifluoromethylphenoxy)-1,2,3,4-tetrahydronaphthalen-2-yl]piperidin-3-ylamine], under setting [1], the inhibition at 10 µM was in the range of 20 to 50%. As to `NCC1CCN([C@@H]2Cc3ccccc3[C@H]2Oc2ccc(NC(=O)OCc3ccccc3)cc2)C1` (mixture of isomers) [Example 240, {4-[rac-trans-(1,2)-2-(3-aminomethylpyrrolidin-1-yl)indan-1-yloxy]phenyl}carbamic acid benzyl ester], the IC50 under setting [1] lay in the range of 1000 to 10000 nM. `N[C@@H]1CCCN([C@@H]2Cc3ccccc3[C@H]2Oc2ccc(F)cc2F)C1` (racemic) [Example 33, (R)-1-[rac-trans-(1,2)-1-(2,4-difluorophenoxy)indan-2-yl]piperidin-3-ylamine]: under setting [1], the IC50 lay in the range of 1000 to 10000 nM.
